Converted amounts (≈) assume the structure as drawn.
Assays:
Format in all cases: functional
[1] = tested on: Klebsiella pneumoniae; assay: Antibacterial activity against Klebsiella pneumoniae MB4005 by broth microdilution technique
[2] = tested on: Staphylococcus aureus; assay: Antibacterial activity against Staphylococcus aureus MB2865 by broth microdilution technique
[3] = tested on: Escherichia coli; assay: Antibacterial activity against Escherichia coli MB2884 by broth microdilution technique
[4] = tested on: Enterococcus faecalis; assay: Antibacterial activity against Enterococcus faecalis MB5407 by broth microdilution technique
[5] = tested on: Streptococcus pneumoniae; assay: Antibacterial activity against Streptococcus pneumoniae CL2883 by broth microdilution technique
[6] = tested on: Haemophilus influenzae; assay: Antibacterial activity against Haemophilus influenzae MB5363 by broth microdilution technique

SMILES | MIC [1] [µg/mL] | MIC [2] [µg/mL] | MIC [3] [µg/mL] | MIC [4] [µg/mL] | MIC [5] [µg/mL] | MIC [6] [µg/mL]
CC[C@H]1OC(=O)[C@H](C)[C@@H](O[C@H]2C[C@@](C)(OC)[C@@H](O)[C@H](C)O2)[C@H](C)[C@@H](O[C@@H]2O[C@H](C)C[C@H](N(C)C)[C@H]2O)[C@](C)(O)C[C@@H](C)N(C)C[C@H](C)[C@@H](O)[C@]1(C)O [L-701677] | 1 (≈ 1.34 µM) | 0.5 (≈ 0.668 µM) | 1 (≈ 1.34 µM) | 2 (≈ 2.67 µM) | 0.03 (≈ 0.0401 µM) | 1 (≈ 1.34 µM)
CC[C@H]1OC(=O)[C@H](C)[C@@H](O[C@H]2C[C@@](C)(OC)[C@@H](O)[C@H](C)O2)[C@H](C)[C@@H](O[C@@H]2O[C@H](C)C[C@H](N(C)C)[C@H]2O)[C@](C)(O)C[C@@H](C)CN(C)[C@H](C)[C@@H](O)[C@]1(C)O [AZITHROMYCIN] | 2 (≈ 2.67 µM) | 1 (≈ 1.34 µM) | 1 (≈ 1.34 µM) | 4 (≈ 5.34 µM) | 0.03 (≈ 0.0401 µM) | 0.5 (≈ 0.668 µM)
CC[C@H]1OC(=O)[C@H](C)[C@@H](O[C@H]2C[C@@](C)(OC)[C@@H](O)[C@H](C)O2)[C@H](C)[C@@H](O[C@@H]2O[C@H](C)C[C@H](N(C)C)[C@H]2O)[C@](C)(O)C[C@@H](C)C(=O)[C@H](C)[C@@H](O)[C@]1(C)O [ERYTHROMYCIN] | 32 (≈ 43.6 µM) | 0.25 (≈ 0.341 µM) | 32 (≈ 43.6 µM) | 1 (≈ 1.36 µM) | 0.02 (≈ 0.0273 µM) | 2 (≈ 2.73 µM)
CC[C@H]1OC(=O)[C@H](C)[C@@H](O[C@H]2C[C@@](C)(OC)[C@@H](N)[C@H](C)O2)[C@H](C)[C@@H](O[C@@H]2O[C@H](C)C[C@H](N(C)C)[C@H]2O)[C@](C)(O)C[C@@H](C)N(C)C[C@H](C)[C@@H](O)[C@]1(C)O | 0.13 (≈ 0.174 µM) | 1 (≈ 1.34 µM) | 0.13 (≈ 0.174 µM) | 2 (≈ 2.67 µM) | ≤ 0.06 | 0.25 (≈ 0.334 µM)
